# Where two headings read alike, the source gives them in different places.
# Legend:
# Drosophila Rdl = molecular target: T1, Drosophila Rdl (Drosophila melanogaster, UniProt P25123); experiment: [3H] muscimol radioligand binding assay, membranes of High Five cells infected with vBP8-Rdl
# T1 construct: excised the full-length cDNA encoding Rdl; made in house; host or cells: High Five (Trichoplusia ni) cells, baculovirus vBP8-Rdl
# T1 sequence (P25123 45-606): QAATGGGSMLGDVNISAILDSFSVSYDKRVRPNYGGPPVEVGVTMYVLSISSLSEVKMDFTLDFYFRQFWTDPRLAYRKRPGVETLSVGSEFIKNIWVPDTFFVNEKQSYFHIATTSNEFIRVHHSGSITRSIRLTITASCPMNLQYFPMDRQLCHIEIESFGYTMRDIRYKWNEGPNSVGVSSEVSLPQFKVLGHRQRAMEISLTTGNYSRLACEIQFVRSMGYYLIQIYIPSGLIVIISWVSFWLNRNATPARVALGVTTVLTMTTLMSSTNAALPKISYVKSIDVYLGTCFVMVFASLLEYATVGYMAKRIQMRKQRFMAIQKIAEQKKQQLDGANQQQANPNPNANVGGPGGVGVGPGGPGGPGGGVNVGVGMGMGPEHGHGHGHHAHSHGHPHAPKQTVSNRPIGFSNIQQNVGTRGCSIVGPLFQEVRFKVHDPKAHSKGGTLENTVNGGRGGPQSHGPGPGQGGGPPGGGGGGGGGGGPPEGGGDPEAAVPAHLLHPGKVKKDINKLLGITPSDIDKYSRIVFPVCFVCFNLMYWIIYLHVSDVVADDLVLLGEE
# Procedure: (§1) High Five™ cells (derived from the cabbage loper, Trichoplusia ni, Invitrogen Corp.) were infected with vBP8-Rdl, vBP8-LCCH3, or vBP8-Grd, either singly or in various combinations. Cells were harvested at 3 days post-infection in tubes of approximately 6×10^7 cells per tube, the cells were pelleted by centrifugation, the supernatants discarded, and the pellets immediately stored at -80° C. This amount of tissue is sufficient for one 96-well microtiter plate. Membranes were prepared by first thawing and then resuspending the cell pellet in 25 mL of 10 mM phosphate buffer pH 7.4. The cells were gently homogenized with five strokes in a glass/Teflon homogenizer and the membranes pelleted by centrifugation at 120,000 g for 30 minutes. The membrane pellet was resuspended in 25 mL of 10 mM phosphate buffer pH 7.4, re-pelleted as above, and the pellet finally resuspended in 3 mL of buffer. The protein concentration was determined by the Bradford method (Bradford (1976) Anal. Biochem. 79:248) and then adjusted to 625 μg of protein per mL of 10 mM PBS, pH 7.4.
# (§2) The reactions were incubated for 90 minutes at 4° C., and then terminated by filtration through Whatman GF/B glass fiber filters. Filters were washed with two 5 mL aliquots of cold buffer, and the radioactivity remaining on the filters was determined by liquid scintillation. Multiple assays were performed to test numerous compounds.
# Rat brain = experiment: [3H] muscimol binding, rat brain (previous assays of the inventors)
# Description: Data from fly heads and rat brains were obtained as described in Table 2.
# Drosophila Grd and LCCH3 [1] = molecular target: T2, Drosophila Grd and LCCH3 (Drosophila melanogaster, UniProt Q08832+Q24352); experiment: [3H] muscimol radioligand binding assay, membranes of High Five cells co-infected with vBP8-Grd/vBP8-LCCH3
# T2 construct: made in house; host or cells: High Five (Trichoplusia ni) cells, co-infected with vBP8-Grd and vBP8-LCCH3
# T2 sequence (Q24352 59-686): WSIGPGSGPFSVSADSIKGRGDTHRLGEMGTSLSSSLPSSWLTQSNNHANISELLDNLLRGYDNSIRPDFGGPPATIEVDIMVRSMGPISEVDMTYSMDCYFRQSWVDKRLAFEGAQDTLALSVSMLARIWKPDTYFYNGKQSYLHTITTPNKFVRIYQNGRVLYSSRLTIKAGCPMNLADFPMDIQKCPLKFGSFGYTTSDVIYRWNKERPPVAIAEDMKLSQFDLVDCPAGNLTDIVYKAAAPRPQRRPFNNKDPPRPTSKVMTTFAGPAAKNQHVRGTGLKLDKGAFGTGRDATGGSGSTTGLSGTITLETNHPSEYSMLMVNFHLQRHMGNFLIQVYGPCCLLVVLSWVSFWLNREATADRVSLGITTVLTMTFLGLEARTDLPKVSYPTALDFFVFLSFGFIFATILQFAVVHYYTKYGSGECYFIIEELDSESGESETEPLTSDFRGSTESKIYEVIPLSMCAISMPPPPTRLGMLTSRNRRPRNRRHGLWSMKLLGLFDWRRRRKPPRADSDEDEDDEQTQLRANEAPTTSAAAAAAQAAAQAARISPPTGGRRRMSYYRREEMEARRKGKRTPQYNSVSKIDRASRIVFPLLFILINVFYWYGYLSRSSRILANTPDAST
# T2 sequence (Q08832 21-496): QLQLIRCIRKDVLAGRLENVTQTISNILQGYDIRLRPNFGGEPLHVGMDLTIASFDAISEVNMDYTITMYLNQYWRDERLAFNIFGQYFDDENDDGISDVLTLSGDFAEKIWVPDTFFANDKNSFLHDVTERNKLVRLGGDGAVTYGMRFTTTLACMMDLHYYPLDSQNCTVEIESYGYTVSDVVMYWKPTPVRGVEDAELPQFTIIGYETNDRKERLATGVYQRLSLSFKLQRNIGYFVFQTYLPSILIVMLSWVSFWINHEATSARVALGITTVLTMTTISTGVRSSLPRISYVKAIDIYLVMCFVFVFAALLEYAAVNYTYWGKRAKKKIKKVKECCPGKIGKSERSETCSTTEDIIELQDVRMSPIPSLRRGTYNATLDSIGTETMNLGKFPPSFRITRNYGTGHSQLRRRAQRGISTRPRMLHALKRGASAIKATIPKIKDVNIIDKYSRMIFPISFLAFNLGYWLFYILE
# Procedure: as §1
# The radioligand binding assays were composed of 200 μL membrane preparation (containing 125 μg protein), 100 μL of [^3 H] muscimol (to give a final concentration of 5 nM), 20 μL of unlabeled test compound, buffer or unlabeled muscimol, and 680 μL of 10 mM PBS, pH 7.4. […] The reactions were incubated for 90 minutes at 4° C., and then terminated by filtration through Whatman GF/B glass fiber filters. Filters were washed with two 5 mL aliquots of cold buffer, and the radioactivity remaining on the filters was determined by liquid scintillation. Multiple assays were performed to test numerous compounds.
# [2] = tested on: insect cells infected with either vBP8-Grd, vBP8-LCCH3, or co-infected with vBP8-Grd and vBP8-LCCH3; experiment: Whole cell voltage clamp recordings of infected insect cells; assay type: cell-based, Drosophila; details: GABA applications of up to 1 mM, 30 to 36 hours post-infection, any of the three infected cell types
# Procedure: Insect cells infected with either vBP8-Grd, vBP8-LCCH3, or co-infected with vBP8-Grd and vBP8-LCCH3 were analyzed for the expression and assembly of functional GABA-gated chloride channels. Whole cell voltage clamp recordings were made at between 30 and 36 hours post-infection. […] However, no specific [^3 H]EBOB binding was detected in cells infected with any combination of virus.
# Housefly heads = details: from Lunt et al. (1985), cited from earlier work; for IC50: half-maximal displacement of [3H] muscimol, read-out: IC50, Fly Heads
# [3] = molecular target: T3, Drosophila Rdl, Grd and LCCH3 (Drosophila melanogaster, UniProt P25123+Q08832+Q24352); experiment: [3H] muscimol radioligand binding assay, membranes of High Five cells infected with vBP8-Grd/vBP8-LCCH3/vBP8-Rdl
# T3 construct: excised the full-length cDNA encoding Rdl; made in house; host or cells: High Five (Trichoplusia ni) cells, co-infected with vBP8-Grd, vBP8-LCCH3 and vBP8-Rdl
# T3 sequence (P25123 45-606): T1 sequence (P25123 45-606)
# T3 sequence (Q24352 59-686): T2 sequence (Q24352 59-686)
# T3 sequence (Q08832 21-496): T2 sequence (Q08832 21-496)
# Procedure: as §1, §2
# Drosophila Grd and LCCH3 [4] = molecular target: T2, Drosophila Grd and LCCH3; experiment: [3H] muscimol radioligand binding assay, membranes of High Five cells co-infected with vBP8-Grd/vBP8-LCCH3; remark: listed apart in the source
# Human α1 and rat β2 = molecular target: T4, Human α1 and rat β2 (UniProt P14867+P63138); experiment: [3H] muscimol radioligand binding assay, positive control receptor expressed in insect cells; details: [3H] muscimol 5 nM, insect cell membranes
# T4 construct: made in house; host or cells: insect cells, baculoviruses vEV-humα1 and vEV-ratβ2
# Drosophila LCCH3 = molecular target: T5, Drosophila LCCH3 (Drosophila melanogaster, UniProt Q08832); experiment: [3H] muscimol radioligand binding assay, membranes of High Five cells infected with vBP8-LCCH3; details: High Five cell membranes
# T5 construct: made in house; host or cells: High Five (Trichoplusia ni) cells, baculovirus vBP8-LCCH3
# T5 sequence (Q08832 21-496): T2 sequence (Q08832 21-496)
# Procedure: as §1, with “The membrane pellet was resuspended in 25 mL of 10 mM phosphate buffer pH 7.4, re-pelleted as above, and the pellet finally resuspended in 3 mL of buffer.” left out
# (§3) The radioligand binding assays were composed of 200 μL membrane preparation (containing 125 μg protein), 100 μL of [^3 H] muscimol (to give a final concentration of 5 nM), 20 μL of unlabeled test compound, buffer or unlabeled muscimol, and 680 μL of 10 mM PBS, pH 7.4. […] Filters were washed with two 5 mL aliquots of cold buffer, and the radioactivity remaining on the filters was determined by liquid scintillation. […]
# Drosophila Grd = molecular target: T6, Drosophila Grd (Drosophila melanogaster, UniProt Q24352); experiment: [3H] muscimol radioligand binding assay, membranes of High Five cells infected with vBP8-Grd; details: High Five cell membranes
# T6 construct: made in house; host or cells: High Five (Trichoplusia ni) cells, baculovirus vBP8-Grd
# T6 sequence (Q24352 59-686): T2 sequence (Q24352 59-686)
# Procedure: as §1, with “The membrane pellet was resuspended in 25 mL of 10 mM phosphate buffer pH 7.4, re-pelleted as above, and the pellet finally resuspended in 3 mL of buffer.” left out
# as §3
# [5] = half-maximal displacement of [3H] muscimol, read-out: IC50, Rdl
# [6] = half-maximal displacement of [3H] muscimol, previous assays by the inventors
# [7] = half-maximal displacement of [3H] muscimol, read-out: IC50, Grd/LCCH3
# [8] = [3H] muscimol saturation binding, High Five cell membranes
# [9] = [3H] muscimol 5 nM, High Five cell membranes, non-specific = 10 μM GABA
# [10] = [3H] muscimol 5 nM, non-specific = 10 μM GABA
# [11] = [3H] muscimol saturation binding
# T4 sequence (P14867 28-456): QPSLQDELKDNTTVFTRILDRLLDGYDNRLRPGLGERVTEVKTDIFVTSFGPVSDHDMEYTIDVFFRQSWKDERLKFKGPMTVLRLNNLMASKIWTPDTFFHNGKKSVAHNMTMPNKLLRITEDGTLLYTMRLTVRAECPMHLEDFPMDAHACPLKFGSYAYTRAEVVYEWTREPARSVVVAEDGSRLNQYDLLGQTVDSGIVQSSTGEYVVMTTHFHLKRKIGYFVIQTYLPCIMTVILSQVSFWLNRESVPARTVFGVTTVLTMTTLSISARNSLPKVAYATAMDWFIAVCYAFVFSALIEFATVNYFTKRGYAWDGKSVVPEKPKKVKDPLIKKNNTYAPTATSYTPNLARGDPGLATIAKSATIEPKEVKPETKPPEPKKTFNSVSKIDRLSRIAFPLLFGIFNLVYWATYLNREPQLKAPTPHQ
# T4 sequence (P63138 25-474 limits assumed): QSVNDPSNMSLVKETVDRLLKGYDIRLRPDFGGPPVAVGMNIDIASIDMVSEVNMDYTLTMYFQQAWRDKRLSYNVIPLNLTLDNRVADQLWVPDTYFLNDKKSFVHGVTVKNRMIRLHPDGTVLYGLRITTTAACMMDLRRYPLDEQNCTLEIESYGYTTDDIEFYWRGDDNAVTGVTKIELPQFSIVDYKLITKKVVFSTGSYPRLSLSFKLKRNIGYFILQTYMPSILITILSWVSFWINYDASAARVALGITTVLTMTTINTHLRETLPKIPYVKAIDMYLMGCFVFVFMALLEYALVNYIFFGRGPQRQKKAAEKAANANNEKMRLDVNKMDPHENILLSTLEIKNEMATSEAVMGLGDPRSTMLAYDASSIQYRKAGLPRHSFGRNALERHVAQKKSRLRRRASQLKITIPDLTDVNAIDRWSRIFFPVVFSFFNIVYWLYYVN
structure (smiles),measurement,setting,value
NCCCCC(=O)O [5-amino-valeric acid],IC50,Drosophila Rdl; [5],2.1 µM
same,IC50,Rat brain; [6],> 1000 µM
same,IC50,Drosophila Grd and LCCH3 [1]; [7],0.749 µM
NCC(CC(=O)O)c1ccc(Cl)cc1 (stereo not shown) [Baclofen],IC50,Drosophila Rdl; [5],> 1000 µM
same,IC50,Rat brain; [6],> 1000 µM
same,IC50,Drosophila Grd and LCCH3 [1]; [7],> 1000 µM
CN1CCc2cc3c(cc2[C@H]1[C@@H]1OC(=O)c2c1ccc1c2OCO1)OCO3 [Bicuculline],IC50,Drosophila Rdl,> 1000 µM
same,IC50,Rat brain; [6],19 µM
same,IC50,Drosophila Grd and LCCH3 [1],> 1000 µM
"NCCCC(=O)O [GABA, γ-aminobutyric acid]",Depolarization in whole cell voltage clamp,[2],Depolarization was not detected
same,IC50,Drosophila Grd and LCCH3 [1]; [7],0.038 µM
COc1ccc(-c2ccc(=N)n(CCCC(=O)O)n2)cc1 [Gabazine],IC50,Drosophila Rdl; [5],> 1000 µM
same,IC50,Rat brain,0.483 µM
same,IC50,Drosophila Grd and LCCH3 [1]; [7],> 1000 µM
COc1ccc2c(c1OC)C(=O)O[C@@H]2[C@H]1c2cc3c(cc2CCN1C)OCO3 [Hydrastine],IC50,Drosophila Rdl,> 1000 µM
same,IC50,Rat brain; [6],2.61 µM
same,IC50,Drosophila Grd and LCCH3 [1],> 1000 µM
O=C(O)C1=CCNCC1 [Isoguavacine],IC50,Drosophila Rdl; [5],0.26 µM
same,IC50,Housefly heads,100 nM
same,IC50,Rat brain; [6],0.289 µM
same,IC50,Drosophila Grd and LCCH3 [1]; [7],0.19 µM
O=C(O)C1CCNCC1 [Isonipecotic acid],IC50,Drosophila Rdl; [5],1.7 µM
same,IC50,Rat brain; [6],1.43 µM
same,IC50,Drosophila Grd and LCCH3 [1]; [7],2.68 µM
NCc1cc(=O)[nH]o1 [Muscimol],IC50,Drosophila Rdl; [5],0.012 µM
same,IC50,Housefly heads,30 nM
same,IC50,Rat brain; [6],0.043 µM
same,IC50,[3]; half-maximal displacement of [3H] muscimol,23 nM
same,IC50,Drosophila Grd and LCCH3 [1]; [7],0.015 µM
O=S(=O)(O)C1CCNCC1 [Piperidine-4-sulfonate],IC50,Drosophila Rdl; [5],> 1000 µM
same,IC50,Drosophila Grd and LCCH3 [1]; [7],> 1000 µM
CP(=O)(O)CCCN [SKF-97541],IC50,Drosophila Rdl,> 1000 µM
same,IC50,Rat brain; [6],> 1000 µM
same,IC50,Drosophila Grd and LCCH3 [1],> 1000 µM
NCc1cc(O)no1 [[^3 H] muscimol],maximum number of binding sites (Bmax) relative to vBP8-Rdl-infected cells,Drosophila Grd and LCCH3 [4]; Grd/LCCH3 co-infected versus Rdl-infected cells,15 fold
same,Bmax,Drosophila Grd and LCCH3 [4]; High Five cell membranes,1.85 pmol [3H] muscimol bound per m
same,Kd,Drosophila Grd and LCCH3 [4]; [8],12 nM
same,Bmax,Drosophila Rdl; High Five cell membranes,0.11 pmol [3H] muscimol bound per m
same,% Specific Binding,Drosophila Rdl; [9],55%
same,Kd,Drosophila Rdl; [8],12 nM
same,% Specific Binding,Human α1 and rat β2,80%
same,% Specific Binding,Drosophila LCCH3; [10],10%
same,Kd,Drosophila LCCH3; [11],> 10 µM
same,Kd,Housefly heads; housefly heads,40 nM
same,% Specific Binding,Drosophila Grd; [10],10%
same,Kd,Drosophila Grd; [11],> 10 µM
same,Kd,"Rat brain; rat brain, previous assays by the inventors",28 nM
same,Bmax,[3]; High Five cell membranes,0.64 pmol [3H] muscimol bound per m
same,% Specific Binding,[3]; [9],60%
same,Kd,[3]; [8],38 nM
same,% Specific Binding,Drosophila Grd and LCCH3 [1]; [9],85%
same,specific binding of [3H]muscimol,Drosophila Grd and LCCH3 [1]; cells 3 days after co-infection with vBP8-Grd and vBP8-LCCH3,High levels of specific binding
NC/C=C\C(=O)O [cis-4-amino-crotonic acid],IC50,Drosophila Rdl; [5],2.91 µM
same,IC50,Rat brain; [6],> 1000 µM
same,IC50,Drosophila Grd and LCCH3 [1]; [7],1.62 µM
